Data from patent US4927919A, “Chartreusin derivatives and salts thereof” (Ishihara Sangyo Kaisha, Ltd., priority 1985, dated 1990).
Counter-ions that a name gives are not always drawn. Like-named read-outs stand apart in the source and are kept apart here.

Legend:
P-388 leukemia cells = assay: Antitumor activity against P-388 leukemia cells (i.p. implanted, i.v. drug); format: in vivo, BDF1 mice; details: for response vs control in vivo at 20 mg/kg / response vs control in vivo at 40 mg/kg / response vs control in vivo at 60 mg/kg / response vs control in vivo at 30 mg/kg / response vs control in vivo at 80 mg/kg / response vs control in vivo at 20 mg/kg/day / response vs control in vivo at 40 mg/kg/day: Mus musculus, P388, iv, 720 h, read-out: T/C of MST; for response vs control in vivo at 60 mg/kg: dose e: 60 mg/kg/d × 3 (days 1, 5, 9); for response vs control in vivo at 30 mg/kg: dose j: 30 mg/kg/d × 3 (days 1, 5, 9); for response vs control in vivo at 20 mg/kg/day: dose b': 20 mg/kg/d × 2 (days 1, 5); for response vs control in vivo at 40 mg/kg/day: dose c': 40 mg/kg/d × 2 (days 1, 5)
Experimental: BDF1 mice were implanted intraperitoneally with P-388 leukemia cells at a rate of 1×10^6 cells/mouse, and each drug to be tested was administered intravenously on the first, fifth and ninth days, or on the first and fifth days after the implantation. […] The T/C (%) was calculated based on the following equation: [formula]
The drugs tested were as follows: solutions prepared by dissolving each of compound Nos. 34, 36 and 43 to 46 in physiological saline; suspension or solutions prepared by dissolving each of compound Nos. 35, 38 and 49 to 55 in dimethylacetamide, followed by adding thereto a small amount of a surface active agent (e.g., Tween-80) and then physiological saline; and suspension or solutions prepared by mixing each of the other compounds and a small amount of a surface active agent (e.g., Tween-80), followed by adding thereto physiological saline.

[1] = Acute toxicity (LD50, single intravenous administration); set-up: species or system day mice; details: mouse, in vivo, mice, single i.v.
From the text: In Table 15 are shown acute toxicity values (LD50, mg/kg) in day mice in the case of intravenously administering (once) each of the compounds of this invention in the form of preparations shown in the Preparation Examples shown in Table 16.

[2] = i.v., dose b: 20 mg/kg/d × 3 (days 1, 5, 9), 30-day observation
[3] = i.v., dose c: 40 mg/kg/d × 3 (days 1, 5, 9), 30-day observation
[4] = i.v., dose f: 80 mg/kg/d × 3 (days 1, 5, 9), 30-day observation

COC1C(N)C(C)OC(OC2C(Oc3cccc4c(OC(=O)CCN5CCCC5)c5c(=O)oc6ccc(C)c7c(=O)oc(c34)c5c67)OC(C)C3OC(c4ccccc4)OC32)C1O (stereo not drawn) [Compound 36, 6-O-(β-1-pyrrolidinylpropionyl)-3',4'-O-benzylidene-4"-epiamino-4"-deoxy-chartreusin dihydrochloride]
response vs control in vivo at 20 mg/kg (P-388 leukemia cells; [2]): 168%
LD50 ([1]; Preparation Example 8): ≥ 20 mg/kg

COC1C(N)C(C)OC(OC2C(Oc3cccc4c(OC(=O)CCNC=O)c5c(=O)oc6ccc(C)c7c(=O)oc(c34)c5c67)OC(C)C3OC(c4ccccc4)OC32)C1O (centres unmarked) [Compound 42]
response vs control in vivo at 20 mg/kg (P-388 leukemia cells; [2]): 130%
response vs control in vivo at 40 mg/kg (P-388 leukemia cells; [3]): 199%
LD50 ([1]; Preparation Example 1): ≥ 40 mg/kg

COC1C(O)C(C)OC(OC2C(Oc3cccc4c(OC(=O)CCCc5c[nH]c6ccccc56)c5c(=O)oc6ccc(C)c7c(=O)oc(c34)c5c67)OC(C)C3OC(c4ccccc4)OC32)C1O (centres unmarked) [Compound 104]
response vs control in vivo at 20 mg/kg (P-388 leukemia cells; [2]): 185%
response vs control in vivo at 60 mg/kg (P-388 leukemia cells; i.v., 30-day observation): 256%
response vs control in vivo at 30 mg/kg (P-388 leukemia cells; i.v., 30-day observation): 219%
LD50 ([1]; Preparation Example 2): ≥ 60 mg/kg

CCn1cc(C(=O)Oc2c3cccc(OC4OC(C)C5OC(c6ccccc6)OC5C4OC4OC(C)C(O)C(OC)C4O)c3c3oc(=O)c4c(C)ccc5oc(=O)c2c3c54)c(=O)c2cnc(N3CCNCC3)nc21 (centres unmarked) [Compound 106]
response vs control in vivo at 60 mg/kg (P-388 leukemia cells; i.v., 30-day observation): 244%
response vs control in vivo at 30 mg/kg (P-388 leukemia cells; i.v., 30-day observation): 188%
LD50 ([1]; Preparation Example 1): ≥ 60 mg/kg

COC1C(O)C(C)OC(OC2C(Oc3cccc4c(OC(=O)C5CCCN5C(=O)OCc5ccccc5)c5c(=O)oc6ccc(C)c7c(=O)oc(c34)c5c67)OC(C)C3OC(C)(C)OC32)C1O (centres unmarked) [Compound 3, 6-O-(N-carbobenzyloxy-prolyl)-3',4'-O-isopropylidene-chartreusin]
response vs control in vivo at 40 mg/kg (P-388 leukemia cells; [3]): 139%
response vs control in vivo at 80 mg/kg (P-388 leukemia cells; [4]): 195%
LD50 ([1]; Preparation Example 3): ≥ 160 mg/kg

COC1C(N)C(C)OC(OC2C(Oc3cccc4c(OC(=O)CCNC(=O)CN)c5c(=O)oc6ccc(C)c7c(=O)oc(c34)c5c67)OC(C)C3OC(c4ccccc4)OC32)C1O (centres unmarked) [Compound 46]
response vs control in vivo at 40 mg/kg (P-388 leukemia cells; [3]): 148%
LD50 ([1]; Preparation Example 8): ≥ 40 mg/kg

COC1C(O)C(C)OC(OC2C(Oc3cccc4c(OC(=O)CCc5ccc6c(c5)OCO6)c5c(=O)oc6ccc(C)c7c(=O)oc(c34)c5c67)OC(C)C3OC(c4ccccc4)OC32)C1O (centres unmarked) [Compound 22]
response vs control in vivo at 20 mg/kg (P-388 leukemia cells; [2]): 142%
response vs control in vivo at 40 mg/kg (P-388 leukemia cells; [3]): 222%
LD50 ([1]; Preparation Example 2): ≥ 40 mg/kg

COC1C(N)C(C)OC(OC2C(Oc3cccc4c(OC(=O)C(C)CNC(=O)C(F)(F)F)c5c(=O)oc6ccc(C)c7c(=O)oc(c34)c5c67)OC(C)C3OC(c4ccccc4)OC32)C1O (centres unmarked) [Compound 40]
response vs control in vivo at 20 mg/kg (P-388 leukemia cells; [2]): 142%
response vs control in vivo at 40 mg/kg (P-388 leukemia cells; [3]): 219%
LD50 ([1]; Preparation Example 1): ≥ 40 mg/kg

CCn1cc(C(=O)Oc2c3cccc(OC4OC(C)C5OC(c6ccccc6)OC5C4OC4OC(C)C(O)C(OC)C4O)c3c3oc(=O)c4c(C)ccc5oc(=O)c2c3c54)c(=O)c2cnc(N3CCCC3)nc21 (centres unmarked) [Compound 105]
response vs control in vivo at 60 mg/kg (P-388 leukemia cells; i.v., 30-day observation): 256%
response vs control in vivo at 30 mg/kg (P-388 leukemia cells; i.v., 30-day observation): 165%
LD50 ([1]; Preparation Example 2): ≥ 60 mg/kg

CCn1cc(C(=O)Oc2c3cccc(OC4OC(C)C5OC(c6ccccc6)OC5C4OC4OC(C)C(O)C(OC)C4O)c3c3oc(=O)c4c(C)ccc5oc(=O)c2c3c54)c(=O)c2ccc(C)nc21 (centres unmarked) [Compound 108]
response vs control in vivo at 80 mg/kg (P-388 leukemia cells; [4]): 158%
LD50 ([1]; Preparation Example 4): ≥ 80 mg/kg

COC1C(O)C(C)OC(OC2C(Oc3cccc4c(OC(=O)c5ccc[nH]5)c5c(=O)oc6ccc(C)c7c(=O)oc(c34)c5c67)OC(C)C3OC(c4ccccc4)OC32)C1O (centres unmarked) [Compound 1]
response vs control in vivo at 20 mg/kg/day (P-388 leukemia cells; i.v., 30-day observation): 154%
response vs control in vivo at 40 mg/kg/day (P-388 leukemia cells; i.v., 30-day observation): 188%
LD50 ([1]; Preparation Example 1): ≥ 40 mg/kg

COC1C(N)C(C)OC(OC2C(Oc3cccc4c(OC(=O)CCNC=O)c5c(=O)oc6ccc(C)c7c(=O)oc(c34)c5c67)OC(C)C3OC(c4cccc(Br)c4)OC32)C1O (centres unmarked) [Compound 38]
response vs control in vivo at 80 mg/kg (P-388 leukemia cells; [4]): 133%
LD50 ([1]; Preparation Example 6): ≥ 80 mg/kg

COC1C(O)C(C)OC(OC2C(Oc3cccc4c(OC(=O)C5CC(OC(C)=O)CC(C)(C)O5)c5c(=O)oc6ccc(C)c7c(=O)oc(c34)c5c67)OC(C)C3OC(c4ccccc4)OC32)C1O (centres unmarked) [Compound 26]
LD50 ([1]; Preparation Example 2): ≥ 20 mg/kg

COC1C(O)C(C)OC(OC2C(Oc3cccc4c(OC(=O)C=Cc5ccc6c(c5)OCO6)c5c(=O)oc6ccc(C)c7c(=O)oc(c34)c5c67)OC(C)C3OC(c4ccccc4)OC32)C1O (centres unmarked) [Compound 21]
response vs control in vivo at 20 mg/kg (P-388 leukemia cells; [2]): 131%
response vs control in vivo at 40 mg/kg (P-388 leukemia cells; [3]): 176%
LD50 ([1]; Preparation Example 2): ≥ 40 mg/kg

COC1C(O)C(C)OC(OC2C(Oc3cccc4c(OC(=O)C5CCCN(C)C5)c5c(=O)oc6ccc(C)c7c(=O)oc(c34)c5c67)OC(C)C3OC(c4ccccc4)OC32)C1O (centres unmarked) [Compound 24]
response vs control in vivo at 20 mg/kg/day (P-388 leukemia cells; i.v., 30-day observation): 152%
response vs control in vivo at 40 mg/kg/day (P-388 leukemia cells; i.v., 30-day observation): 186%
LD50 ([1]; Preparation Example 2): ≥ 40 mg/kg

COC1C(O)C(C)OC(OC2C(Oc3cccc4c(OC(=O)C5CCCN5C(=O)CNC(=O)CNC(=O)OCc5ccccc5)c5c(=O)oc6ccc(C)c7c(=O)oc(c34)c5c67)OC(C)C3OC(c4ccccc4)OC32)C1O (centres unmarked) [Compound 4]
response vs control in vivo at 20 mg/kg (P-388 leukemia cells; [2]): 138%
LD50 ([1]; Preparation Example 2): ≥ 20 mg/kg

COC1C(O)C(C)OC(OC2C(Oc3cccc4c(OC(=O)C=Cc5ccco5)c5c(=O)oc6ccc(C)c7c(=O)oc(c34)c5c67)OC(C)C3OC(C)(C)OC32)C1O (centres unmarked) [Compound 9]
response vs control in vivo at 80 mg/kg (P-388 leukemia cells; [4]): 194%
LD50 ([1]; Preparation Example 3): ≥ 80 mg/kg

COC1C(O)C(C)OC(OC2C(Oc3cccc4c(OC(=O)c5cccs5)c5c(=O)oc6ccc(C)c7c(=O)oc(c34)c5c67)OC(C)C3OC(C)(C)OC32)C1O (centres unmarked) [Compound 62]
T/C of MST (P-388 leukemia cells; [4]): 131%
LD50 ([1]; Preparation Example 2): ≥ 80 mg/kg

COC1C(N)C(C)OC(OC2C(Oc3cccc4c(OC(=O)C(C)CN)c5c(=O)oc6ccc(C)c7c(=O)oc(c34)c5c67)OC(C)C3OC(c4ccccc4)OC32)C1O (stereo not drawn) [Compound 34, 6-O-(β-amino-isobutyryl)-3',4'-benzylidene-4"-epiamino-4"-deoxy-chartreusin dihydrochloride]
response vs control in vivo at 20 mg/kg (P-388 leukemia cells; [2]): 140%
response vs control in vivo at 40 mg/kg (P-388 leukemia cells; [3]): 219%
LD50 ([1]; Preparation Example 8): ≥ 40 mg/kg

COC1C(N)C(C)OC(OC2C(Oc3cccc4c(OC(=O)C(CN)C(C)C)c5c(=O)oc6ccc(C)c7c(=O)oc(c34)c5c67)OC(C)C3OC(c4ccccc4)OC32)C1O (centres unmarked) [Compound 45]
response vs control in vivo at 30 mg/kg (P-388 leukemia cells; i.v., 30-day observation): 131%
LD50 ([1]; Preparation Example 8): ≥ 30 mg/kg

COc1ccc2[nH]c(C(=O)Oc3c4cccc(OC5OC(C)C6OC(c7ccccc7)OC6C5OC5OC(C)C(O)C(OC)C5O)c4c4oc(=O)c5c(C)ccc6oc(=O)c3c4c65)cc2c1 (centres unmarked) [Compound 19, 6-O-{2-(5-methoxyindolyl)-carbonyl}-3',4'-O-benzylidene-chartreusin]
response vs control in vivo at 20 mg/kg (P-388 leukemia cells; [2]): 131%
response vs control in vivo at 40 mg/kg (P-388 leukemia cells; [3]): 165%
LD50 ([1]; Preparation Example 2): ≥ 40 mg/kg

COc1cccc(C(=O)Oc2c3cccc(OC4OC(C)C5OC(c6ccccc6)OC5C4OC4OC(C)C(N)C(OC)C4O)c3c3oc(=O)c4c(C)ccc5oc(=O)c2c3c54)c1 (centres unmarked) [Compound 51, 6-O-(m-methoxybenzoyl)-3',4'-O-benzylidene-4"-epiamino-4"-deoxy-chartreusin]
response vs control in vivo at 20 mg/kg (P-388 leukemia cells; [2]): 185%
response vs control in vivo at 40 mg/kg (P-388 leukemia cells; [3]): 244%
LD50 ([1]; Preparation Example 6): ≥ 40 mg/kg

COC1C(O)C(C)OC(OC2C(Oc3cccc4c(OC(=O)Cc5ccc6c(c5)OCO6)c5c(=O)oc6ccc(C)c7c(=O)oc(c34)c5c67)OC(C)C3OC(c4ccccc4)OC32)C1O (centres unmarked) [Compound 29]
response vs control in vivo at 20 mg/kg (P-388 leukemia cells): 201%
response vs control in vivo at 40 mg/kg (P-388 leukemia cells): 255%
LD50 ([1]; Preparation Example 2): ≥ 40 mg/kg

COC1C(N)C(C)OC(OC2C(Oc3cccc4c(OC(=O)CCNC(=O)c5ccccc5)c5c(=O)oc6ccc(C)c7c(=O)oc(c34)c5c67)OC(C)C3OC(c4cccc(F)c4)OC32)C1O (centres unmarked) [Compound 55]
response vs control in vivo at 80 mg/kg (P-388 leukemia cells; [4]): 133%
LD50 ([1]; Preparation Example 6): ≥ 80 mg/kg
